The format of this data set is physicochemical. On the procedure: Substances B and C Evaporation Rate at Room Temperature Substances B and C were inserted in a thermostated chamber at room temperature and the substance weight/surface ratio for both of them was evaluated. Both substances B and C, alone or in mixture with a gel, were controlled and the loss of weight versus time was recorded. The resulting data of the test were interpolated so as to obtain two algorithms indicating, respectively, the evaporation rate of B and C. To this end two different interpolation methods were used. The algorithm adopted for the first interpolation method is: po/[…] uti (1) The algorithm adopted for the second interpolation method is: po/p=(A×T1⁄2)/(T1⁄2+min uti) (2) Parameters used in algorithms (1) and (2) have the following meaning: p: initial weight of the antibacterial substances expressed in g; po: weight of the antibacterial substances at time t, expressed in g; a, b, A: correlation parameters; and T1⁄2: half-life time of the antibacterial substances.

“silvester pine oil [B: silvester pine oil]”: the “parameter T1/2 (half-life time of the antibacterial substances)” value was 854737.

In the case of lavender oil [C: lavender oil], the “parameter T1/2 (half-life time of the antibacterial substances)” value is given as 46856.

These data come from patent publication US20060018981A1, “Sanitization process by using bacteriostatic or bactericidal products derived from vegetables” (priority 2004, published 2006).
